The results in this text go back to paper PMC6318801 (European journal of medicinal chemistry, 2018).

Data set [1] can be described thus: Impact of human serum protein binding on inhibitory activity. As to conditions: Figure S4. The format is cell-based.
In data set [2] the target is human IDO1 expressed endogenously in HeLa cells (Homo sapiens, UniProt P14902). Briefly: Cell-based IDO1 inhibition assay.
The target of data set [3] is T1, mouse IDO2 expressed exogenously in T-Rex cells (Mus musculus, UniProt Q8R0V5).
T1 sequence (Q8R0V5 1-405): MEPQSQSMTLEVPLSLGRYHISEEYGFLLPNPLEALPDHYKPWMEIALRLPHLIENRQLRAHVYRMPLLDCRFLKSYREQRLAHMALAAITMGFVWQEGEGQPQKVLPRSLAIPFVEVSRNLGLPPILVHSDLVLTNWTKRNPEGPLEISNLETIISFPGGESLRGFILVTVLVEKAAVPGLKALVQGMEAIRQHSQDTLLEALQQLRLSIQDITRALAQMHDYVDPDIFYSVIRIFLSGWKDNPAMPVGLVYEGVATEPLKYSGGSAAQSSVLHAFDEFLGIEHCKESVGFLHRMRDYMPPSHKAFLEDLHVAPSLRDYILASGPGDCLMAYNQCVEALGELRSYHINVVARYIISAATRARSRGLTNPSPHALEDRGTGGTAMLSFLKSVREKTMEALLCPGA
Briefly: Cell-based IDO2 inhibition assay. As to conditions: for Greater potency for IDO1 and TDO over IDO2 (cell-based): cell-based IC50 ratio.

Another data set concerns the target IDO1 (Homo sapiens, UniProt P14902). Briefly: Enzyme-based IDO1 inhibition assay. To be noted: for IDO1 % inhibition: isolated enzyme, 100 μM inhibitor.
The target of data set [4] is human TDO expressed exogenously in T-Rex cells (Homo sapiens, UniProt P48775). Briefly: Cell-based TDO inhibition assay.
Sequence of human TDO expressed exogenously in T-Rex cells (P48775 whole entry): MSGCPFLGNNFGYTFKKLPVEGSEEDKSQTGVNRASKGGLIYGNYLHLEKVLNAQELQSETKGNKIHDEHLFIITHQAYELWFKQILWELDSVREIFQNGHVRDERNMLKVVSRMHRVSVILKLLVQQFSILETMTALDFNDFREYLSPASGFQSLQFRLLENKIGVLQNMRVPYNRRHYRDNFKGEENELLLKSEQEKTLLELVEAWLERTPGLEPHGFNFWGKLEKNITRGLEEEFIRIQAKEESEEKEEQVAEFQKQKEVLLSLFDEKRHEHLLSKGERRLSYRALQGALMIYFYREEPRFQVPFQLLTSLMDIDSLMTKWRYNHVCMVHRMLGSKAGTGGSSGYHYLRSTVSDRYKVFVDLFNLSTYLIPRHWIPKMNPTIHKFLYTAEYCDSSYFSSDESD
Another data set deals with IDO2 (Homo sapiens, UniProt Q6ZQW0). The data set is described as follows: Enzyme-based IDO2 inhibition assay.
Sequence of IDO2 (Q6ZQW0 whole entry): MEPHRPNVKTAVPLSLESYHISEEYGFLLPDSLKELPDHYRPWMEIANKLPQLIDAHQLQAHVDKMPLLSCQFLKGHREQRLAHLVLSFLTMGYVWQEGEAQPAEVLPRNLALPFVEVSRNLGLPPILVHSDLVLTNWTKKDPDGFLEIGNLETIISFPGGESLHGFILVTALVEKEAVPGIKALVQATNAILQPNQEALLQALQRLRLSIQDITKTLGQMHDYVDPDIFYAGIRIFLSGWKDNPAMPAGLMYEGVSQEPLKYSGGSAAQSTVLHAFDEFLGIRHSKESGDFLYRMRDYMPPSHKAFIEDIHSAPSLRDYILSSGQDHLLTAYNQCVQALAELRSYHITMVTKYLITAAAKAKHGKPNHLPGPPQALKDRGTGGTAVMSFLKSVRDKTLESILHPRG
The target in another data set is TDO (Homo sapiens, UniProt P48775). The data set is described as follows: Enzyme-based TDO inhibition assay.
Sequence of TDO (P48775 whole entry, species assumed): as the sequence (P48775 whole entry) above
Where [5] appears, read: read-out: IDO2 IC50 (cell-based), mouse IDO2 in T-Rex cells, racemic mixtures.
Where [6] appears, read: read-out: IDO1 IC50 (cell-based), HeLa cells, racemic mixtures.
Setting [7] is: read-out: TDO IC50 (cell-based), human TDO in T-Rex cells, racemic mixtures.
The mark [8] stands for this setting: isolated enzyme, 100 μM inhibitor.

Structures can show the parent of a compound that is named as a salt. Where two headings read alike, the source gives them in different places.

Sequence of IDO1 (P14902 whole entry, species assumed): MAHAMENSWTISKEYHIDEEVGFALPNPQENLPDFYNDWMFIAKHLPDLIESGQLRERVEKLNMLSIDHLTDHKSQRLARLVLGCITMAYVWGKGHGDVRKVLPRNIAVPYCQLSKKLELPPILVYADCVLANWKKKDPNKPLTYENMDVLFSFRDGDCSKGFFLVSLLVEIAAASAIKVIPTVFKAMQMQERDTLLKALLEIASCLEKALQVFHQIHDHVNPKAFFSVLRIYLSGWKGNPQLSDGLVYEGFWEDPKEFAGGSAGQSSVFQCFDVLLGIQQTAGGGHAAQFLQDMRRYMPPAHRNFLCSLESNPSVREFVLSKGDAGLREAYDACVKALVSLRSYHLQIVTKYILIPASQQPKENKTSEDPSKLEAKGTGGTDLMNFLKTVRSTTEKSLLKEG
Sequence of human IDO1 expressed endogenously in HeLa cells (P14902 whole entry): as the sequence (P14902 whole entry, species assumed) above

Consider `Cl.NOC(c1ccccc1)c1cc(Cl)cc(Cl)c1` (stereo not drawn) [Compound 2, O-(3,5-Dichloro-α-phenylbenzyl)hydroxylamine hydrochloride], for which, in data set [1], the “Effect of human serum protein binding on inhibitory activity” value is reported as “relatively unaffected”.

`Cl.NOC(CCCC(=O)Nc1ccccc1)c1cccc(Cl)c1` (centres unmarked) [Compound 5, 5-(Aminooxy)-5-(3-chlorophenyl)-N-phenylpentanamide hydrochlorie]: the “Selectivity for IDO1 over IDO2 and TDO (cell-based)” value in data set [2] (cell-based IC50 ratio) is recorded as “more than 20 fold”.

Consider `Cl.NOC(c1ccccc1)c1ccc(Cl)cc1Cl` (centres unmarked) [Compound 6, O-(2,4-Dichlorophenylbenzyl)hydroxylamine hydrochloride], for which, in data set [1], the “Effect of human serum protein binding on inhibitory activity” value is “substantial reduction in inhibitory activity”.

As to `Cl.NOC(c1ccccc1)c1ccccc1F` (stereo not drawn) [Compound 16, O-(2-Fluoro-α-phenylbenzyl)hydroxylamine hydrochloride], the “Greater potency for IDO1 and TDO over IDO2 (cell-based)” value in data set [3] is “roughly 10 fold”.

Usually IC50 stands for the concentration that gives 50% inhibition. As usually defined, the inhibition is how much of the control response was suppressed. As for `NOC(CCc1ccccc1)c1ccccc1` (centres unmarked) [Compound 17, O-(1,3-diphenylpropyl)hydroxylamine hydrochloride], the IC50 amounted to 19.3 µM in data set [3], 14.7 µM in data set [2], 16 µM on IDO1 and 49.7 µM in data set [4]. Moreover, the inhibition at 100 µM at IDO2 (read-out: IDO2 % inhibition) came to 76%; at TDO (read-out: TDO % inhibition) it was 89.9%.

On to `Cl.NOC(c1ccccc1)c1ccsc1` (centres unmarked) [Compound 21, O-(phenyl(thiophen-3-yl)methyl)hydroxylamine hydrochloride], for which the “Greater potency for IDO1 and TDO over IDO2 (cell-based)” value in data set [3] is “roughly 10 fold”.

For the compound `NOC(c1ccccc1)c1ccc(O)cc1` (stereo not drawn) [Compound 25, O-(4-Hydroxy-α-phenyl)-benzyl hydroxylamine hydrochloride], the inhibition at 200 µM on IDO1 (read-out: IDO1 % inhibition, isolated enzyme, 200 μM inhibitor) was found to be 18%.

On to “O-(2-Methoxy-α-phenylbenzyl)hydroxylamine hydrochloride [Compound 20]”, for which the IC50 in data set [3] (setting [5]) stood at 16.5 µM; in data set [2] (setting [6]), 1.11 µM; in data set [4] (setting [7]), 48.8 µM. This compound also returned an IDO2 % inhibition on IDO2 (setting [8]) of 80.0%.

Consider “O-(3-Trifluoromethyl-α-phenylbenzyl)hydroxylamine hydrochloride [Compound 26]”, for which the IC50 in data set [3] (setting [5]) turned out to be 24.7 µM; in data set [2] (setting [6]) it was 1.73 µM; in data set [4] (setting [7]), 13.6 µM; on TDO (read-out: TDO IC50, isolated enzyme, racemic mixtures), 12 µM. Moreover, the IDO1 % inhibition at IDO1 worked out at 18%.

Consider “O-[4-Chloro-α-(2’-methyl,4’-methoxyphenyl)benzenemethyl]hydroxylamine hydrochloride [Compound 23]”, for which the results for the IC50 in data set [3] (setting [5]), in data set [2] (setting [6]) and in data set [4] (setting [7]) were 8.77 µM, 1.76 µM and 19.1 µM, respectively. Also, at IDO1, the IDO1 % inhibition is listed as 85%. The compound further yielded a TDO % inhibition on TDO (setting [8]) of 66%.
